Test results: patent US20210163489A1, “PYRAZOLOPYRIMIDINE DERIVATIVES AND THE COMPOSITIONS AND METHODS OF TREATMENT REGARDING THE SAME” (NysnoBio Ireland DAC, priority 2016, published 2021)

Key:
[1] = Metabolic stability in rat liver microsomes (RLM); assay type: in vitro ADME; settings: 1 μM compound, 1.0 mg/mL microsome, NADPH
Procedure: Compounds were also tested for metabolic stability in both rat liver microsomes (RLM) and human liver microsomes (HLM) and their half-life calculated (See Table 6). The assay was performed as follows. The total volume for each incubation was 250 μL. A 100 μM DMSO solution of compound (diluted from 10 mM stock solution) was spiked into 50 mM KH2PO4 (pH 7.4) buffer containing liver microsome at a concentration of 1.0 mg/mL. The reaction was initiated by the addition of 50 μL of 1 mM NADPH. The final concentration of each compound was 1 μM (1% DMSO). The positive controls, phenacetin for CYP1A2, diclofenac for CYP2C9, omeprazole for CYP2C19, dextromethorphan for CYP2D6 and midazolam for CYP3A4 were added to a separate tube with the final substrate concentrations of 1 μM (1% DMSO) for evaluating the enzyme activities in the liver microsomes. At 0, 15, 30 and 60 min, an aliquot of 15 μL reaction mixtures were removed and 200 μL of methanol (with internal standard of 25 ng/mL propranolol) was added to quench the reaction. The resulting mixture was centrifuged and supernatant was used for LC-MS/MS analysis.
The signals for each compound, or the metabolites for the probe substrates and the internal standard were integrated and the peak area ratios to internal standard were generated. Percent parent remaining at a specified timepoint was calculated based on the peak area ratios at time 0 (as 100%) for in vitro metabolic stability studies in liver microsome and hepatocyte. The observed rate constant (kobs) for the metabolism of substrates was calculated by plotting the natural log of percentage substrate remaining versus time of incubation with the slope being kobs. The half-life (T1/2) was calculated according to the following equation: […]

Parkin = target: T1, Parkin (Homo sapiens, UniProt O60260); experiment: Parkin pUB auto-ubiquitinylation assay (TR-FRET); assay type: biochemical; settings: activation of pUb activated Parkin; read-out: Auto-ubiq EC50 (μM) [Example 3]
T1 construct: Enzyme 3: Parkin-His tagged 203 μM (10.5 mg/ml)
Excerpt: A Parkin pUB Auto-ubiquitinylation Assay is used to evaluate a compound's potency to activate Parkin's ability to Auto-ubiquitinylate itself.
The principle of this assay is that the E3 Ligase Parkin catalyzes the transfer of Ubiquitin to target proteins, but also has the ability to auto-ubiquitinylate itself. The phospho-Ubiquition (pUb) added to the assay alters the Parkin to a state where small molecule activators can enable the Parkin to auto-ubiquitinylate though the E1-E2 cascade reaction. The use of a Eu cryptate Ubiquition and anti 6His-d2 that binds to the His tagged Parkin will give a signal when the Eu cryptate Ubiquition is auto-ubiquitinylate onto the Parkin which can be monitored by TR-FRET.
Similar to the Activity-based probe assay in Example 2, screening for activating compounds can be distinguished from the controls as follows:
100% activation signal=pUb activated Parkin+40 nM control activator in DMSO. 0% activation signal=pUb activated Parkin+DMSO only. Parkin activators can be identified by an increase of the 0% activation signal TR-FRET signal.
• Assay Plate: White 384 well plate (Corning 3572) • Enzyme 1: E1 (Ubiquitin-activating enzyme/UBE1 Boston Biochem E-305) • Enzyme 2: E2 (UBcH7/Ube2L3 Boston Biochem E2-640) • Enzyme 3: Parkin-His tagged 203 μM (10.5 mg/ml) • pUb: Phospho-Ubiquitin (S65) (Boston Biochem U-102) • Eu Cryptate Reagent: Ubiquitin Eu (CisBio 61UBIKLA) • DMSO: DMSO (Sigma-34869-2.5L) • Reaction Buffer: 50 mM HEPES, 50 mM NaCl, 1 mM MgCl2, 0.005% Tween 20, 0.1% • PF-127 (Fisher Scientific 50-310-494), pH 8.5 • Detection Buffer: 50 mM HEPES, 50 mM NaCl, 800 mM KF, 5 mM EDTA, 0.005% • Tween 20, 0.1% PF-127, pH 8.5 • Detection Reagent Z: 13.4 nM Anti-6His-d2 in detection buffer • d2 Reagent: Anti-6His-d2 (CisBio 61HISDLA)
Enzyme Reaction (15 min Pre-Incubation with Parkin, pUb and Activator Only) • Parkin: 196 nM • pUb: 196 nM • DMSO: 1% DMSO • E1: 5 nM • E2: 50 nM • Ubiquitin Eu: 8.8 nM • Reaction time: 120 minutes • Temperature: 22° C. • Total volume: 10 μl reaction
Take 10 μl of Enzyme Reaction above and add 10 μl detection Reagent Z under the following conditions:
Reaction time: 60 minutes
1) Load assay plate wells with 4.9 μl 400.0 nM Parkin, 400 nM pUb in reaction buffer by use of Eppendorf 12-channel pipette. 2) Deliver 0.1 μl 100× activator candidates in DMSO by use of Echo 555 compound dispenser. Highest 100× concentration=100 μm and then twofold dilutions. Add each compound and control in duplicate wells. 3) Spin 1000 rpm, 2 minutes, at room temp. 4) Incubate plate for 15 minutes at room temp. 5) Add 5 μl 10 nM E1, 100 nM E2, 17.6 nM Ubiquitin Eu and 2 mM ATP in Reaction Buffer by use of Eppendorf 12-channel pipette. 6) Spin 1000 rpm, 2 minutes, at room temp. 7) Incubate plate for 120 minutes at room temp. 8) Add 10 μl 13.4 nM anti his d2 in detection buffer by use of Eppendorf 12-channel pipette. 9) Spin 1000 rpm, 2 minutes, at room temp. 10) Incubate plate for 120 minutes at room temp. 11) Read plates on Perkin Elmer Envision instrument with the following parameters:
(§1) LANCE dual laser protocol loaded into the Envision® software
(§2) Top Mirror: LANCE/DELFIA Duel/Bias (Bar code 446) Emission Filter: APC 665 EM (Bar code 205) 2nd Emission Filter: Europium 615 EM (Bar code 203) Read […] (channel 1) and 615 nm (channel 2) wavelengths on Envision®
(§3) Data Analysis: The Data can be read in CSV files. There are two tables in those CSV files, which are the values of 655 nm (channel 1) and 615 nm (channel 2) wavelengths respectively. The data is converted to an HTRF Ratio=(Channel 1/Channel 2)*10,000
(§4) The average of all the 0 uM controls (DMSO only)=BKGD (Background—0% activation). Subtract BKGD from each HTRF Ratio value=HTRF-BKGD. The average of all the 100 uM control activator in DMSO controls=Max (100% activation). The following equation is then used to calculate % Activation for each well/candidate as follows: % Activation=(HTRF−BKGD/Max)*100.
XLFIT5 model 205 was applied for the data analysis. […]

Parkin ligase = target: T2, Parkin ligase (Homo sapiens, UniProt O60260); experiment: Activity-based probe assay using an ubiquitin vinyl sulfone probe (TR-FRET); assay type: biochemical; settings: activation of heat activated Parkin, HA-Ub-VS probe; read-out: Probe Assay EC50 (μM) [Example 2]
T2 construct: Enzyme: Parkin-His tagged 203 μM (10.5 mg/ml)
T2 sequence (O60260 1-465): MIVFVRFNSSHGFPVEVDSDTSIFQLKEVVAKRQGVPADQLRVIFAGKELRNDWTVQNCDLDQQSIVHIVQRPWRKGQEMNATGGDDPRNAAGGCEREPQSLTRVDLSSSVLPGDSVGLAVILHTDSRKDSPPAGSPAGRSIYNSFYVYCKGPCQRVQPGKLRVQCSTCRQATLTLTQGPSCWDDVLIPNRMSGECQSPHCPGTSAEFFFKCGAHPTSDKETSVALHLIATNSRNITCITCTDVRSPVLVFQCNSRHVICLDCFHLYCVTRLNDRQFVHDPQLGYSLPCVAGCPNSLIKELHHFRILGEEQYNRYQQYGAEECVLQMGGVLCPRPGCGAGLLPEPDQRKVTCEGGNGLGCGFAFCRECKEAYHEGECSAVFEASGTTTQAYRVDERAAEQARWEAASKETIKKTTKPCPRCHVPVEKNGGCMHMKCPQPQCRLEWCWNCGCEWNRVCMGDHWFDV
Procedure: An Ubiquitin vinyl sulfone probe can be used that irreversibly binds to the active site cysteine of Parkin ligase. Covalent attachment of the probe to the Parkin can be monitored by TR-FRET. Candidate activator compounds can be identified by increasing the activity of Parkin ligase due to an increase in TR-FRET signal. Screening for activating compounds can be distinguished from the controls as follows:
100% activation signal=Heat activated Parkin+100 nM control activator in DMSO. 0% activation signal=Heat activated Parkin+DMSO only. Parkin activators can be identified by an increase of the 0% activation signal TR-FRET signal.
• Assay Plate: White 384 well plate (Corning 3572) • Enzyme: Parkin-His tagged 203 μM (10.5 mg/ml) • Probe: Ubiquitin vinyl-sulfone (HA-Ub-VS Boston Biochem U-212) • DMSO: DMSO (Sigma cat # D4540-100ML) • Reaction Buffer: 50 mM HEPES (pH 8.5), 150 mM NaCl, 0.01% Tween 20, 0.1% BSA • Detection Buffer: 50 mM HEPES (pH 8.5), 150 mM NaCl, 0.01% Tween 20, 0.1% BSA, 800 mM KF • Detection Reagent A: 2.6 nM Anti-6HIS-Eu cryptate and 40 nM Anti-HA-XL665 in detection buffer • Eu cryptate: Anti-6HIS-Eu cryptate (CisBio 61HISKLA) • XL665: Anti-HA-XL665 (CisBio 610HAXLA) Enzyme Reaction (15 min Pre Incubation Parkin with Activator Only) • Parkin: 40 nM • HA-Ub-VS Probe: 70 nM • Activator/DMSO: 2× Activator/2% DMSO • Reaction time: 60 minutes • Temperature: 22° C. • Total volume: 10 μl reaction
• Take 10 μl of Enzyme Reaction above and add 10 μl detection Reagent A under the following conditions: • Reaction time: 60 minutes • Temperature: 22° C. • Total volume: 20 μl
Assay procedure (Using HP D-300 compound dispenser and Bravo for the operation):
1) Heat activate Parkin in reaction buffer (500 μl/1.5 ml tube: Eppendorf Thermomixer 5 minutes, 400 rpm at 58° C. and put on ice until needed). 2) Load assay plate wells with 4.8 μl 84.5 nM Parkin in reaction buffer by use of Bravo. 3) Deliver 0.2 μl 200× activator candidates in DMSO by use of HP D-300 compound dispenser. Highest 200× concentration=20 μm and then twofold dilutions. 4) Spin 1000 rpm, 2 minutes, at room temp. 5) Incubate plate for 15 minutes at room temp. 6) Add 5 μl 140 nM HA-Ub-VS Probe in reaction buffer by use of Bravo. 7) Spin 1000 rpm, 2 minutes, at room temp. 8) Incubate plate for 60 minutes at room temp. 9) Add 10 μl 2.6 nM Anti-6HIS-Eu cryptate and 40 nM Anti-HA-XL665 in detection buffer. 10) Spin 1000 rpm, 2 minutes, at room temp. 11) Incubate plate for 60 minutes at room temp. 12) Read plates on Perkin Elmer Envision instrument with the following parameters:
as §1, §2, §3
as §4, with “[…] 100 nM control activator” for “100 uM control activator”
Graphpad Prisim was used with Transform X values: X=Log(X) and nonlinear regression (dose-response-stimulation): Log(agonist) vs Response—variable slope (four parameters) with constrains set to Bottom=0 and Top=100.

RLM t1/2 [1]	EC50 (Parkin)	EC50 (Parkin ligase)	SMILES
6.0 min	> 40 µM		COc1ccc(-c2cnc3c(S)cc(C)nn23)cc1 [Compound Q3]
		> 100 µM	Cc1ccc(-c2cnc3c(O)cc(C)nn23)cc1 [Compound U3]
		> 100 µM	COc1ccc(-c2cnc3c(O)cc(C)nn23)cc1 [Compound V3]

Continued, compound first:

SMILES	RLM t1/2 [1]	EC50 (Parkin)	EC50 (Parkin ligase)
COc1ccc(-c2cnc3c(S)cc(C)nn23)cc1 [Compound T3]	96.0 min		
COc1ccc(-c2cnn3c(O)c4c(nc23)CN(C)CC4)cc1 [Compound R3]			> 100 µM
